The structures appear in SMILES notation. Where “and” joins values, the source holds several entries; their conditions need not be identical. Equal values may be shown once.

We go through 16 compounds from the Kinase Knowledgebase extract (Sharma et al. 2016).

The target of assay [1] is MAPK14 (human) (UniProt Q16539). In words: LPS-induced TNF-alpha Release Inhibition (Human Blood).
Assay [2] relates to MAPK14 (rat). In words: Secondary Paw Swelling Inhibition (Arthritis Rat).
The target in assay [3] is MAPK14 (UniProt Q16539). In words: p38-alpha Kinase Inhibition.
Assay [4] deals with MAPK14 (rat).

Sequence of MAPK14 (human) (Q16539 whole entry, looked up): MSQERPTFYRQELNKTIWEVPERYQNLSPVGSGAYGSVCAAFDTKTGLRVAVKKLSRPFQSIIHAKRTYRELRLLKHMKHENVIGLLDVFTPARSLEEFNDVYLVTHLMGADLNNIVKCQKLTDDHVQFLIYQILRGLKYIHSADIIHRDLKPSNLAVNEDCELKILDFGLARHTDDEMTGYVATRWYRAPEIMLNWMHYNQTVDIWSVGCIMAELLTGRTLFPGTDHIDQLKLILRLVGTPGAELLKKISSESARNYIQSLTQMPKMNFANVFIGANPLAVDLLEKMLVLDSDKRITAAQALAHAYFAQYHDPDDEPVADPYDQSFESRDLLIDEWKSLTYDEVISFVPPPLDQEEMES
Sequence of MAPK14 (Q16539 whole entry, looked up): as above

A word on the IC50: it is the concentration at which inhibition is half-maximal. Low values mean higher potency, high ones lower potency. In turn, `Nc1nccc(-c2[nH]c(C3CCNCC3)nc2-c2cccc(C(F)(F)F)c2)n1` displayed an IC50 in assay [1] of 190 nM.

For the compound `Fc1ccc(-c2nc(C3CCNCC3)[nH]c2-c2ccncc2)cc1`, in assay [1], the IC50 was 175 nM.

`COc1ccc(CNc2nccc(-c3[nH]c(-c4ccccc4)nc3-c3ccccc3)n2)cc1` gave an IC50 in assay [1] greater than 100000 nM.

Consider `COc1ccc2c(c1)c(CC(=O)O)c(C)n2C(=O)c1ccc(Cl)cc1`, for which the score in assay [2] is 5.5 and 4.9.

In assay [1], `FC(F)(F)c1cccc(-c2nc(-c3ccccc3)[nH]c2-c2ccncc2)c1` gave an IC50 greater than 100000 nM.

`C[C@H](Nc1nccc(-c2nc(C3CCNCC3)n(C)c2-c2cccc(C(F)(F)F)c2)n1)c1ccccc1` returned an IC50 in assay [1] of 24000 nM.

As to `COc1ccc(CNc2nccc(-c3[nH]c(C4CCNCC4)nc3-c3cccc(C(F)(F)F)c3)n2)cc1`, in assay [1], the IC50 was determined as 290 nM.

In turn, `Fc1ccc(-c2nc(C3CCCNC3)[nH]c2-c2ccncc2)cc1` (stereo not given) had an IC50 in assay [1] of 585 nM.

Compound `Fc1ccc(-c2nc(C3CCCCC3)[nH]c2-c2ccncc2)cc1` yielded an IC50 in assay [1] of 34 nM.

Regarding `C[C@H](Nc1nccc(-c2[nH]c(-c3ccccc3)nc2-c2cccc(C(F)(F)F)c2)n1)c1ccccc1`, the IC50 worked out at 0.75 nM in assay [3] and 6 nM in assay [1].

As to `Fc1ccc(-c2nc[nH]c2-c2ccncc2)cc1`, the IC50 in assay [1] is greater than 10000 nM.

With `Nc1nccc(-c2[nH]c(-c3ccccc3)nc2-c2ccccc2)n1`, the IC50 in assay [1] is greater than 100000 nM.

Turning to `C[C@@H](Nc1nccc(-c2[nH]c(-c3ccccc3)nc2-c2cccc(C(F)(F)F)c2)n1)c1ccccc1`, the figures for the IC50 in assay [3] and in assay [1] were 0.97 nM and 0.4 nM, respectively.

Consider `CNc1nccc(-c2[nH]c(-c3ccccc3)nc2-c2ccccc2)n1`, for which the IC50 in assay [1] was greater than 100000 nM.

Broadly, the ED50 is the dose at which the effect has come halfway, by size or by number of responders. A lower ED50 goes with greater potency. The inhibition is the percentage by which the read-out fell short of the control. Consider `C[C@H](Nc1cc(-c2c(-c3cccc(C(F)(F)F)c3)nc(C3CCNCC3)n2C)ccn1)c1ccccc1`, for which the ED50 in assay [2] is 8.2 mg/kg/day. This compound returned an inhibition in assay [2] (dose or concentration not given here) of 76%. In addition, in assay [4], the ID50 stood at 17.5 mg/kg/day.

For the compound `c1ccc(-c2nc(-c3ccccc3)c(-c3ccncn3)[nH]2)cc1`, the IC50 in assay [1] was greater than 100000 nM.
